Test results from ChEMBL document CHEMBL4138278, “Neothioviridamide, a Polythioamide Compound Produced by Heterologous Expression of a Streptomyces sp. Cryptic RiPP Biosynthetic Gene Cluster” (J Nat Prod, 2018).
pIC50: −log10 of the molar value.

How the values were obtained:
Type in all cases: functional, cell-based
[1] = Cytotoxicity against human ACC-MESO1 cells assessed as reduction in cell viability after 72 hrs by CellTiter-Glo luminescence assay; details: ACC-MESO-1, 72 h
[2] = tested on: SK-OV-3; test: Cytotoxicity against human SKOV3 cells assessed as reduction in cell viability after 72 hrs by CellTiter-Glo luminescence assay; details: SK-OV-3, 72 h
[3] = tested on: Jurkat; test: Cytotoxicity against human Jurkat cells assessed as reduction in cell viability after 72 hrs by CellTiter-Glo luminescence assay

With `CSCCC(NC(=S)C(NC(=O)C(C)=O)C(C)C)C(=S)NC(C)C(=O)NC(C)C(=S)NC(C)C(=S)NC(C)C(=O)NC1C(=O)NC(C(C)C)C(=O)NC(C)C(=O)NC(Cc2ccccc2)C(=O)NC(C(O)c2cn(C)c[n+]2C)C(=O)N/C=C\SC1C` (stereo not drawn) as the compound, how does the pIC50 [1] read?
Its pIC50 is 6.15.

What about the pIC50 [2] of the same compound?
Its pIC50 is 5.68.

And the pIC50 [3]?
Its pIC50 is 6.40.
